Results published in PubChem BioAssay (NCI).
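Briefly, cells in 96-well plates were exposed to five compound concentrations for 48 h, and endpoints were estimated by linear interpolation. GI50 marks 50% less growth. TGI marks complete inhibition of growth.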

Columns and labels:
Assay in all cases: inhibition of tumour cell growth, NCI panel, 48 h
SN12C renal = test system: SN12C renal
HCT-15 colon = test system: HCT-15 colon
NCI-H23 lung = test system: NCI-H23 lung
A498 renal = test system: A498 renal
UO-31 renal = test system: UO-31 renal
DMS 114 small cell lung = test system: DMS 114 small cell lung
CAKI-1 renal = test system: CAKI-1 renal
786-0 renal = test system: 786-0 renal
HOP-62 NSCLC = test system: HOP-62 NSCLC
SF-539 CNS = test system: SF-539 CNS

Row | Compound | TGI (SN12C renal) [µM] | TGI (HCT-15 colon) [µM] | TGI (NCI-H23 lung) [µM] | TGI (A498 renal) [µM] | TGI (UO-31 renal) [µM] | TGI (DMS 114 small cell lung) [µM] | TGI (CAKI-1 renal) [µM] | TGI (786-0 renal) [µM] | TGI (HOP-62 NSCLC) [µM] | TGI (SF-539 CNS) [µM] | GI50 (SN12C renal) [µM] | GI50 (HCT-15 colon) [µM] | GI50 (NCI-H23 lung) [µM] | GI50 (A498 renal) [µM] | GI50 (UO-31 renal) [µM] | GI50 (DMS 114 small cell lung) [µM] | GI50 (CAKI-1 renal) [µM] | GI50 (786-0 renal) [µM] | GI50 (HOP-62 NSCLC) [µM] | GI50 (SF-539 CNS) [µM]
1 | COc1ccc(OC)c(NC(=O)C2=C(C)NC(C)=C(C(=O)Nc3cc(OC)ccc3OC)C2c2ccccc2)c1 | > 100 | > 100 | > 100 | > 100 | > 100 | > 100 | > 100 | > 100 | > 100 | > 100 |  |  |  |  |  |  |  |  |  | 
2 | Cc1ccc(NC(=O)C(=O)C(C#N)c2ccccc2C)cc1C (stereo not drawn) | > 100 | > 62 | > 100 | > 100 | > 100 | > 59.2 | > 100 | > 100 | > 100 | > 100 |  |  |  |  |  |  |  |  |  | 
3 | NC1C[C@H](n2cc(/C=C/Br)c(=O)[nH]c2=O)C[C@@H]1CO (stereo partly drawn) | > 100 | > 100 | > 100 | > 100 | > 100 | > 100 |  | > 100 | > 100 | > 100 |  |  |  |  |  |  |  |  |  | 
4 | N#C/C(=C\c1ccc(O)c(O)c1)C(N)=S | > 100 | > 100 | > 100 | > 100 | > 100 | > 100 | > 100 | > 100 | > 100 | > 100 |  |  |  |  |  |  |  |  |  | 
5 | O=[N+]([O-])C1C2C=CC(C2)[C@H]1c1ccco1 (stereo partly drawn) | > 100 | > 100 | 2.36 | > 100 | > 100 | > 100 | > 100 | > 100 | > 100 | > 100 |  |  |  |  |  |  |  |  |  | 
6 | CC1SC2=NC3=C(c4ccccc4C3=O)C(c3ccc(F)cc3)N2C1=O (stereo not drawn) | > 100 | > 100 | > 100 | > 100 | > 100 | > 100 | > 100 | > 100 | > 100 | > 100 |  |  |  |  |  |  |  |  |  | 
7 | O=C(N/C(=C\c1ccc2c(c1)OCO2)c1nc2ccccc2[nH]1)c1ccccc1 | > 84.1 | > 100 | 53.4 | > 93.8 | 99.8 | 6.08 | > 100 | > 100 | > 73.4 | 82.7 |  |  |  |  |  |  |  |  |  | 
8 | COC(C(=O)[O][Ge]([CH3])([CH3])[CH3])c1ccccc1 (stereo not drawn) | > 100 | > 100 | > 100 | > 100 | > 100 | > 100 | > 100 | > 100 | > 100 | > 100 | > 100 | > 100 | > 100 | > 100 | > 100 | > 100 | > 100 | > 100 | > 100 | > 100
9 | Cc1c(C(=O)C/C(=N\O)C(=O)Nc2cc(Cl)c(Cl)cc2Cl)[n+](=O)c2ccccc2n1[O-] | 18.9 | 23.5 | 65.6 | 56.2 | 78.2 | 19.9 | > 100 | > 100 | > 100 | 32.7 |  |  |  |  |  |  |  |  |  | 
10 | CCN(CC)c1ccc(C(=O)c2ccccc2C(=O)O)c(O)c1 | > 100 | > 100 | > 100 | > 100 | > 100 | > 100 | > 100 | > 100 | > 100 | > 100 |  |  |  |  |  |  |  |  |  | 
11 | COc1ccc(C2=Nc3ccccc3NC(=O)C2)cc1 | > 100 | > 100 | 67 | > 100 | > 100 | 59.7 | > 100 | > 100 | 45.6 | 65.6 |  |  |  |  |  |  |  |  |  | 
12 | Cc1cc(N(CCC#N)CCC#N)ccc1N=Nc1cccc(C(=O)O)c1 | > 100 | > 100 | > 100 | > 100 | > 100 | > 100 | > 100 | > 100 | > 100 | > 100 |  |  |  |  |  |  |  |  |  | 
13 | CCCNC1=C(C(=O)OCC)C(=O)CO1 | > 100 | > 100 | > 100 | > 100 | > 100 | > 100 | > 100 | > 100 |  | > 100 |  |  |  |  |  |  |  |  |  | 
14 | CCCCCCCCCCCC(=O)OCC1OC(n2cc(F)c(=O)[nH]c2=O)C(NC(=O)OCc2ccccc2)C(OC(=O)CCCCCCCCCCC)C1O (stereo not drawn) | > 100 | > 100 | > 100 | > 100 | > 100 | > 100 | > 100 | > 100 | > 100 | > 100 |  |  |  |  |  |  |  |  |  | 
15 | CCc1ccccc1NC(=O)C(=O)CC(=O)c1sc(Nc2ccccc2)nc1C | > 100 | > 100 | > 100 | > 100 | > 100 | > 100 | > 100 | > 100 | > 100 | > 100 |  |  |  |  |  |  |  |  |  | 
16 | Cc1[nH]ccc2c1[nH]c1cc(=O)ccc12 | > 100 | > 100 | > 100 | > 100 | > 100 | > 100 | > 100 | > 100 | > 100 | > 100 |  |  |  |  |  |  |  |  |  | 
17 | CC1=C(C)C(=O)c2c(cc3ccccn23)C1=O | 27.1 | 29.9 | 23.3 | 46.1 | 65.1 | 26.9 |  | 72.9 |  | 37.1 |  |  |  |  |  |  |  |  |  | 
18 | CN(C)C(=O)OC(Cn1cncn1)c1ccc(Cl)cc1Cl (stereo not drawn) | > 100 | > 100 | > 100 | > 100 | > 100 | > 100 | > 100 | > 100 | > 100 | > 100 |  |  |  |  |  |  |  |  |  | 
19 | C/C(=N\NS(=O)(=O)c1ccccc1)c1ccc(Cl)c(Cl)c1 | > 100 | > 100 | > 100 | > 100 | > 100 | > 100 | > 100 | > 100 | > 100 | > 100 |  |  |  |  |  |  |  |  |  | 
20 | CC1=C(Oc2ccccc2)C(CCC(=O)O)c2c(O)cc(Cl)c(O)c21 (stereo not drawn) | > 100 | > 100 | > 100 | > 100 | > 100 | > 100 | > 100 | > 100 | > 100 | > 100 |  |  |  |  |  |  |  |  |  | 
21 | Nc1ccn(CCNCCn2cnc3nc(N)[nH]c(=O)c32)c(=O)n1 | > 100 | > 100 | > 100 | > 100 | > 100 | > 100 |  | > 100 | > 100 | > 100 |  |  |  |  |  |  |  |  |  | 
22 | CC(=O)OCC1OC(OC2C(CSC3OC(COC(C)=O)C(OC(C)=O)C(OC(C)=O)C3OC(C)=O)OC(OC(C)=O)C(OC(C)=O)C2OC(C)=O)C(OC(C)=O)C(OC(C)=O)C1OC(C)=O (stereo not drawn) | > 100 | > 100 | > 100 |  | > 100 | > 100 | > 100 | > 100 | > 100 | > 100 |  |  |  |  |  |  |  |  |  | 
23 | CC1(C)C(=NNC(=O)C[N+](C)(C)C)C(C)(C)C1=NNC(=O)C[N+](C)(C)C | > 100 | > 100 | > 100 | > 100 | > 100 | > 100 | > 100 | > 100 | > 100 | > 100 |  |  |  |  |  |  |  |  |  | 
24 | CCOc1ccc(NC(=O)C(=O)CC(=O)C2=C(C)Nc3ccccc3S2)cc1 | > 50 | > 50 | > 50 | > 50 | > 50 | > 50 | > 50 | > 50 | > 50 | > 50 |  |  |  |  |  |  |  |  |  | 
25 | CC1=Nc2ccccc2S/C1=C(/C)NNC(=O)C(N)=O | > 100 | > 100 | > 100 | > 100 | > 100 | > 100 | > 100 | > 100 | > 100 | > 100 |  |  |  |  |  |  |  |  |  | 
26 | COc1ccc2nc(-c3cccs3)cc(C(O)CN3CCSCC3)c2c1 (stereo not drawn) | 87.7 | 57.8 | 55.4 |  | 60.8 | 38.7 | > 100 | 46.2 | 65.8 | 51.3 |  |  |  |  |  |  |  |  |  | 
27 | CCOC(=O)COc1ccccc1/C=C1\CCC(CN(C)C)C1=O (stereo not drawn) | 14.1 | 9.86 | 19.3 | 31.3 | 29.9 | 24.2 | 10.9 | 11.7 | 35.8 | 26.6 |  |  |  |  |  |  |  |  |  | 
28 | O=C(CN1CCOCC1)Nc1nc(-c2ccc(Cl)cc2)cs1 | > 100 | > 100 | 40.1 | > 100 | 67 | 65.8 | > 100 | > 100 | 73.1 | > 100 |  |  |  |  |  |  |  |  |  | 
